Results taken from patent US20240101576A1, “HETEROCYCLIC INHIBITORS OF EGFR AND/OR HER2, FOR USE IN THE TREATMENT OF CANCER” (Scorpion Therapeutics, Inc., priority 2020, published 2024).

Experiments:
Type in all cases: cell-based
[1] = target: T1, EGFR WT (Ba/F3 cells) (Homo sapiens, UniProt P00533); experiment: Inhibitor activity on EGFR-dependent cell growth (CellTiter-Glo, 72 h), Ba/F3 EGFR WT; details: read-out: BaF3 WT IC50
T1 construct: expressed in transfected cells; host or cells: Ba/F3 (murine pro-B cells), retroviral transduction, puromycin selection, maintained with EGF
T1 sequence (P00533 25-1210): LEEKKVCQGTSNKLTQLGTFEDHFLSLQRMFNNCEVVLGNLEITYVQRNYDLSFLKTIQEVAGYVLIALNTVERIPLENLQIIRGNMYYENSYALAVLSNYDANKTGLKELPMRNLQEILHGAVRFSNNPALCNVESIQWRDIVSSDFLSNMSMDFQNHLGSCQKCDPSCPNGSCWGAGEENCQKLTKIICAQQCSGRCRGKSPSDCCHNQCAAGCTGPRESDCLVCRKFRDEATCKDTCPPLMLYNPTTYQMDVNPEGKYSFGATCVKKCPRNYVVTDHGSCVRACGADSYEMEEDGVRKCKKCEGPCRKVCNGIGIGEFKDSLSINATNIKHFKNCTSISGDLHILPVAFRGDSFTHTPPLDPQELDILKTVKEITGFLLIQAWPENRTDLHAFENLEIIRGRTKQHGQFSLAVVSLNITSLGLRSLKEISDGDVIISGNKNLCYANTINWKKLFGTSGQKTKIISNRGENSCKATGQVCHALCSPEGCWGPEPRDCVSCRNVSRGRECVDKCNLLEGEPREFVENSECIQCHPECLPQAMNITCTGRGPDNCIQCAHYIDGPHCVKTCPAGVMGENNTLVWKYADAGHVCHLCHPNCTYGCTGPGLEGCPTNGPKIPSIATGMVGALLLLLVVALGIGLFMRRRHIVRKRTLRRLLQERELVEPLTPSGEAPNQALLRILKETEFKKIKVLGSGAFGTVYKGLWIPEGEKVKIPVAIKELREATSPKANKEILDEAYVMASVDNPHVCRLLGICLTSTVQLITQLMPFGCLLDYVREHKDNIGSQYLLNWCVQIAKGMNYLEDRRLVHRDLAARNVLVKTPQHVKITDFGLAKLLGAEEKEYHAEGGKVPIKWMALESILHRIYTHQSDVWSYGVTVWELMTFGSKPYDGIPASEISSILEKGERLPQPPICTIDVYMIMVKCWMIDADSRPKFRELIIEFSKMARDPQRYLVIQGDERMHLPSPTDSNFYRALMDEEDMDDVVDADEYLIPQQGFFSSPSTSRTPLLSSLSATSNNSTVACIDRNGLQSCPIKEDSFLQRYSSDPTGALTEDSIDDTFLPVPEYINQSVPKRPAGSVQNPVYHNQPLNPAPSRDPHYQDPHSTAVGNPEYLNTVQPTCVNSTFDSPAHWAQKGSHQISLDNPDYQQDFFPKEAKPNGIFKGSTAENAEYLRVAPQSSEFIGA
Summary of the method: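 This growth assay used Ba/F3 cells that depend on wild-type EGFR and are kept in EGF without IL3. Compounds were made up as 10 mM DMSO stocks and diluted 3-fold over 10 points. 120 nL went onto 600 cells/well. After 72 hours, 40 μL CellTiter-Glo was added and luminescence read on EnVision after 30 min.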

[2] = target: T2, EGFR exon 20 ASV Ins V769_D770 (Ba/F3 cells) (Homo sapiens, UniProt P00533, INS769ASV); experiment: Inhibitor activity on EGFR phosphorylation (pEGFR AlphaLISA, 2 h), Ba/F3 EGFR exon 20 ASV Ins; details: EGFR phosphorylation, AlphaLISA, 2 hours; read-out: ASV IC50 (pEGFR)
T2 construct: expressed in transfected cells; host or cells: Ba/F3 (murine pro-B cells), retroviral transduction, puromycin selection, IL3-independent pool
T2 sequence (P00533 with tags, fused parts or gaps INS769ASV): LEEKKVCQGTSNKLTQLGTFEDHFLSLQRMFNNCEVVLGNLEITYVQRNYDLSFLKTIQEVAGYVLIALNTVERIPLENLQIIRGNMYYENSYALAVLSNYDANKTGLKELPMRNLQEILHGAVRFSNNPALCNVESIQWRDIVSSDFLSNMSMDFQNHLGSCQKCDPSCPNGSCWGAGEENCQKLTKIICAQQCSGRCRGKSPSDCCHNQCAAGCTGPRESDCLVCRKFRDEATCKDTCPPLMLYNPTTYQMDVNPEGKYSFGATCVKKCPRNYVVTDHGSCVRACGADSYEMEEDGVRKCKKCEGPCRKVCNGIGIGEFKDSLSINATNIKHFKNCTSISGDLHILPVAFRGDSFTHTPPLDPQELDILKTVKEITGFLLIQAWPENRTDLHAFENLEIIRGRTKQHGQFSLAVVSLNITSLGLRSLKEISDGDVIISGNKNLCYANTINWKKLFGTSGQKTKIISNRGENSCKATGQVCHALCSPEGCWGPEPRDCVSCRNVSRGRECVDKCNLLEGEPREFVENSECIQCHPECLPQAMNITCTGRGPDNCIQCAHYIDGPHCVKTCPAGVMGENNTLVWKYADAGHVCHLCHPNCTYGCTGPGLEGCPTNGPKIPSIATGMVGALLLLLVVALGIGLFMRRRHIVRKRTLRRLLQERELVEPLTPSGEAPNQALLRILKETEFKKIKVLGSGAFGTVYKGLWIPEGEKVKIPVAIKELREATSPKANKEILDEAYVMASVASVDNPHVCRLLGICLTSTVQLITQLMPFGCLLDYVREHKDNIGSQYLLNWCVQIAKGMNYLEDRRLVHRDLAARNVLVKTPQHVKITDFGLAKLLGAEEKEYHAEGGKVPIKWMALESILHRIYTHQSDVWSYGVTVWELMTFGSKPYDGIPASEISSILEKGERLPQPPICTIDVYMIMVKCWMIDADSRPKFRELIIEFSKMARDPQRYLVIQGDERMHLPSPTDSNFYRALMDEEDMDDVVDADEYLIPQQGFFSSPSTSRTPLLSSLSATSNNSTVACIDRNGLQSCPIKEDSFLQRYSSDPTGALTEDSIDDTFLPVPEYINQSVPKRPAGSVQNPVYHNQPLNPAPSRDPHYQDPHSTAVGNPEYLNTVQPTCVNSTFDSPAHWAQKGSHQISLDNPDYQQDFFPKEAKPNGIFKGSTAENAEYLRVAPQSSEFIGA
Summary of the method: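 Cellular EGFR autophosphorylation assay. IL3-independent Ba/F3 transductants or CUTO14 cells are incubated with serially diluted compound (3-fold, 10 points) for 2 h, then lysed and pEGFR quantified by AlphaLISA.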

[3] = target: T3, EGFR exon 20 NPG Ins D770_N771 (Ba/F3 cells) (Homo sapiens, UniProt P00533, INS770NPG); experiment: Inhibitor activity on EGFR phosphorylation (pEGFR AlphaLISA, 2 h), Ba/F3 EGFR exon 20 NPG Ins
T3 construct: expressed in transfected cells; host or cells: Ba/F3 (murine pro-B cells), retroviral transduction, puromycin selection, IL3-independent pool
T3 sequence (P00533 with tags, fused parts or gaps INS770NPG): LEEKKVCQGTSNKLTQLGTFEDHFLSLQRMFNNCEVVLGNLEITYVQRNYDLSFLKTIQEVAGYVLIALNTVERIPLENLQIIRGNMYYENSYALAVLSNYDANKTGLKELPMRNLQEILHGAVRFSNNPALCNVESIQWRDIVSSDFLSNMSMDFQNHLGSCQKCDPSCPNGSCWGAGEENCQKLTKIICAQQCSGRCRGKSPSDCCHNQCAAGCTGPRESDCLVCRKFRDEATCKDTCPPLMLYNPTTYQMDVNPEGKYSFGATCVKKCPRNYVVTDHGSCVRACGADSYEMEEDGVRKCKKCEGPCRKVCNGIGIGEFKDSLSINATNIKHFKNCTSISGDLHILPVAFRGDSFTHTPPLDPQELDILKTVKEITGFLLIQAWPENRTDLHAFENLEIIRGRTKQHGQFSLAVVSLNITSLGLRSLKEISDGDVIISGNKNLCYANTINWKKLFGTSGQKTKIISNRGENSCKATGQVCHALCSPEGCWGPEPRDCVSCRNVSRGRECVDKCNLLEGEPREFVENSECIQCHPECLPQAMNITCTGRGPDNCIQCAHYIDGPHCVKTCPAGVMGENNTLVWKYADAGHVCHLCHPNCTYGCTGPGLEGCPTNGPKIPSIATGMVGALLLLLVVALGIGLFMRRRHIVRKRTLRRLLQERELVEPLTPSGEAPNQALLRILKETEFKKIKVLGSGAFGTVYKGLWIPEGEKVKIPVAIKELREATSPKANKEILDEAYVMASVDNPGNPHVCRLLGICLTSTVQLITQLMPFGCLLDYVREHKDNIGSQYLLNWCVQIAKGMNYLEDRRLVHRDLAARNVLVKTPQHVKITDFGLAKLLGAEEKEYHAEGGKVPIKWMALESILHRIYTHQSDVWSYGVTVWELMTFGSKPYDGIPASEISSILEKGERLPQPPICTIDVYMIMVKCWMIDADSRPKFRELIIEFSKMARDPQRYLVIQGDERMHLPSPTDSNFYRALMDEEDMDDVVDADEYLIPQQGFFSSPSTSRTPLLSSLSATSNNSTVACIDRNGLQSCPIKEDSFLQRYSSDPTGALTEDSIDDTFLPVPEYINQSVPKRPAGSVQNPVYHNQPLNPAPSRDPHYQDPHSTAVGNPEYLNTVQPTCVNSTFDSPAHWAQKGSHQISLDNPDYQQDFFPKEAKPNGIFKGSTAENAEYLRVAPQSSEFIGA
From the text: Example B. Inhibitor Activity on EGFR phosphorylation (pEGFR)
EGFR mutant Ba/F3 cells were generated by transduction with retrovirus containing vectors expressing EGFR L858R, EGFR exon 19del, EGFR L858R/C797S, EGFR exon 20 NPG Ins D770_N771, EGFR exon 20 ASV Ins V769_D770, or EGFR exon 20 SVD Ins D770_N771 genes along with a puromycin selection marker. Transduced cells are selected with puromycin for 7 days and are then be transferred into culture media without Interleukin 3 (IL3). Surviving cells are confirmed to express EGFR by Western blot and maintained as a pool. CUTO14 cells were obtained from Dr. Robert C. Doebele at the University of Colorado. The IC50 date are included in Table 6 and Table 7.
1.1 Cells are harvested from flask into cell culture medium and the cell number counted.
1.2 Cells are diluted with culture medium to the desired density and 40 μL of cell suspension is added into each well of 384-well cell culture plate and the seeding density is 50K cells/well (Ba/F3) or 12.5K cells/well (CUTO14).
2 Compound Preparation and Treatment
2.1 Test compounds are dissolved to 10 mM in a DMSO stock solution. 45 μL of stock solution is transferred to a 384 polypropylene plate (pp-plate). Perform 3-fold, 10-point dilution via transferring 15 μL compound into 30 μL DMSO using a TECAN (EVO200) liquid handler.
2.2 Spin plates at room temperature at 1,000 RPM for 1 minute.
2.3 Transfer 5 nL of diluted compound from compound source plate into the cell plate.
2.4 After compound treatment for 2 hours, perform pEGFR detection by AlphaLISA for compound treatment plates as described in “Detection” section.
3 Detection by pEGFR AlphaLISA (Perkin-Elmer)
3.1 Plates are removed from incubators and equilibrated at room temperature for 10 minutes, and media was removed
3.2 10 μL of lysis buffer is added and plates shaken at 600 rpm for 1 hr.
3.3 Prepare acceptor mix just before use and dispense 5 μL of acceptor mix to all the wells. Shake 350 rpm for Ihr in the dark
3.4 Prepare donor mix under low light conditions prior to use. Dispense 5 μL of donor mix to all the wells. Mix well on the shaker, seal and wrap in aluminum foil and incubate 1.5 hrs at room temperature in the dark
3.5 Transfer 18.5 μL mixture to OptiPlate 384, and read using an Envision. The IC50 date were included in Table 6 and Table 7.

[4] = target: T3, EGFR exon 20 NPG Ins D770_N771 (Ba/F3 cells); experiment: Inhibitor activity on EGFR-dependent cell growth (CellTiter-Glo, 72 h), Ba/F3 EGFR exon 20 NPG Ins; details: read-out: BaF3 NPG IC50
Summary of the method: (§1)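 IC50s derive from a sigmoidal dose–response fit of CellTiter-Glo signal. The signal was normalised between […]-treated cells and cell-free medium. Ba/F3 mutant-EGFR cells, seeded at 400–800/well depending on the line, had 72 h of exposure to a 10-point, 3-fold compound series.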

[5] = target: T4, EGFR exon 20 FQEA Ins A763_V764 (Ba/F3 cells) (Homo sapiens, UniProt P00533, INS763FQEA); experiment: Inhibitor activity on EGFR-dependent cell growth (CellTiter-Glo, 72 h), Ba/F3 EGFR exon 20 FQEA Ins; details: read-out: BaF3 FQEA IC50
T4 construct: expressed in transfected cells; host or cells: Ba/F3 (murine pro-B cells), retroviral transduction, puromycin selection, IL3-independent pool
T4 sequence (P00533 with tags, fused parts or gaps INS763FQEA): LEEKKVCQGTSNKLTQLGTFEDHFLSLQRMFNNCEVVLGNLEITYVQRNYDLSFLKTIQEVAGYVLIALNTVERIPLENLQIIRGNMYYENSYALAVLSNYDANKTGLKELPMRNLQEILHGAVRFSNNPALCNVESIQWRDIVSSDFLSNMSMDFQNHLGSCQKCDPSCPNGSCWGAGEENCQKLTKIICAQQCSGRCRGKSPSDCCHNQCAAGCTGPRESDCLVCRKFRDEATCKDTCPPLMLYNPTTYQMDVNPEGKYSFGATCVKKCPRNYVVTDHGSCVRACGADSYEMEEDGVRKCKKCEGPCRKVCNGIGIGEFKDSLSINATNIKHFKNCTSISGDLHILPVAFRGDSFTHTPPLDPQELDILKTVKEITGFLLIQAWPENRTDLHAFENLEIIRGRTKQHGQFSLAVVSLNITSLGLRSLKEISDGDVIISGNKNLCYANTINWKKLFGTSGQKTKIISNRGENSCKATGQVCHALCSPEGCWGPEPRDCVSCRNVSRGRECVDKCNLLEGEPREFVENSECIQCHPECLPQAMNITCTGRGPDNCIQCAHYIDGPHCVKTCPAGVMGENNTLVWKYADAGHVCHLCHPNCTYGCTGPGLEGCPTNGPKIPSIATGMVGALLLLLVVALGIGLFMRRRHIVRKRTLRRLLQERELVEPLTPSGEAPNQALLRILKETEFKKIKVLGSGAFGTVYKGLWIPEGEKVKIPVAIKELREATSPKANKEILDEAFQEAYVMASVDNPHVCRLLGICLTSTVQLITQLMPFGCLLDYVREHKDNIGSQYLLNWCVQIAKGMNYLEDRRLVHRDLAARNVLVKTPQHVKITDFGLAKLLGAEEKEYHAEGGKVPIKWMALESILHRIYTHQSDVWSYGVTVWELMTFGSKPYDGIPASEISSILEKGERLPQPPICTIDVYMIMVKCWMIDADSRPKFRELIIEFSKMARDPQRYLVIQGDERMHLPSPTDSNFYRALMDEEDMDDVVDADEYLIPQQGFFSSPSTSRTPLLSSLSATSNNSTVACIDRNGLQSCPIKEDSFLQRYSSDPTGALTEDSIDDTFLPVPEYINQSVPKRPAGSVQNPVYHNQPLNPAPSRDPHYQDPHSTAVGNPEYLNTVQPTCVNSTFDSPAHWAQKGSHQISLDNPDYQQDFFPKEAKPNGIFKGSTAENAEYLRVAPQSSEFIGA
Summary of the method: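 Ba/F3 cells engineered with each EGFR variant were plated (400, 600 or 800 per well for L858R, L858R/C797S, and exon 19del/FQEA). They were exposed for 72 hours to compound serially diluted from a 10 mM DMSO stock. Remaining viable cells were quantified by CellTiter-Glo, and IC50 was curve-fitted.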

[6] = target: T2, EGFR exon 20 ASV Ins V769_D770 (Ba/F3 cells); experiment: Inhibitor activity on EGFR-dependent cell growth (CellTiter-Glo, 72 h), Ba/F3 EGFR exon 20 ASV Ins; details: read-out: BaF3 ASV IC50
Summary of the method: as §1

[7] = target: T5, EGFR exon 20 SVD Ins D770_N771 (Ba/F3 cells) (Homo sapiens, UniProt P00533, INS770SVD); experiment: Inhibitor activity on EGFR-dependent cell growth (CellTiter-Glo, 72 h), Ba/F3 EGFR exon 20 SVD Ins; details: read-out: BaF3 SVD IC50
T5 construct: expressed in transfected cells; host or cells: Ba/F3 (murine pro-B cells), retroviral transduction, puromycin selection, IL3-independent pool
Summary of the method: as §1

| SMILES | IC50 [1] | IC50 [2] | IC50 [3] | IC50 [4] | IC50 [5] | IC50 [6] | IC50 [7] |
| --- | --- | --- | --- | --- | --- | --- | --- |
| COc1c(Cl)cccc1Nc1c(-c2ccnc(C)n2)[nH]c2c1C(=O)NCC2 [compound 206] | 100 to 1000 nM | 100 to 1000 nM | < 100 nM | 100 to 1000 nM |  |  |  |
| Cc1c(F)cccc1Nc1c(-c2ccnc(N)c2F)[nH]c2c1C(=O)NCC2 [Compound 692, 2-(2-amino-3-fluoropyridin-4-yl)-3-[(3-fluoro-2-methylphenyl)amino]-1H,5H,6H,7H-pyrrolo[3,2-c]pyridin-4-one] | 100 to 1000 nM | 100 to 1000 nM | < 100 nM | 100 to 1000 nM | 100 to 1000 nM | 100 to 1000 nM | 100 to 1000 nM |
| COc1c(Cl)cccc1Nc1c(-c2ccnc(Nc3cnn(C)c3)n2)[nH]c2c1C(=O)NCC2 [compound 109] | < 100 nM | < 100 nM | < 100 nM | < 100 nM | < 100 nM | < 100 nM | < 100 nM |
| COc1c(Cl)cccc1Nc1c(-c2ccnc(NC(C)=O)n2)[nH]c2c1C(=O)NCC2 [compound 220] | > 1000 nM | 100 to 1000 nM | < 100 nM | 100 to 1000 nM | 100 to 1000 nM | 100 to 1000 nM | 100 to 1000 nM |
| Nc1nccc(-c2[nH]c3c(c2Nc2ccccc2)C(=O)NCC3)n1 [compound 283] | 100 to 1000 nM | 100 to 1000 nM | < 100 nM | 100 to 1000 nM | < 100 nM |  |  |
| COc1ccc2nccc(-c3[nH]c4c(c3Nc3cccc(F)c3OC)C(=O)NCC43CCNCC3)c2n1 [compound 685] | 100 to 1000 nM | < 100 nM | < 100 nM | 100 to 1000 nM |  |  |  |
| CNc1nccc(-c2[nH]c3c(c2Nc2cccc(F)c2C)C(=O)NCC3)n1 [Compound 690, 3-[(3-fluoro-2-methylphenyl)amino]-2-[2-(methylamino)pyrimidin-4-yl]-1H,5H,6H,7H-pyrrolo[3,2-c]pyridin-4-one] | < 100 nM | < 100 nM | < 100 nM | 100 to 1000 nM |  |  |  |
| COc1ccc2nccc(-c3[nH]c4c(c3Nc3cccc(F)c3C)C(=O)NCC4)c2n1 [Compound 684, 3-[(3-fluoro-2-methylphenyl)amino]-2-(6-methoxy-1,5-naphthyridin-4-yl)-1H,5H,6H,7H-pyrrolo[3,2-c]pyridin-4-one] | 100 to 1000 nM |  | < 100 nM | < 100 nM | < 100 nM | < 100 nM | < 100 nM |
| Nc1nccc(-c2[nH]c3c(c2Nc2cccc(F)c2OC(F)F)C(=O)NCC3)n1 [compound 299] | > 1000 nM |  | < 100 nM | 100 to 1000 nM | 100 to 1000 nM | 100 to 1000 nM | 100 to 1000 nM |
| COc1c(F)cccc1Nc1c(-c2ncnc3cccnc23)[nH]c2c1C(=O)NCC2 [Compound 154, 3-((3-fluoro-2-methoxyphenyl)amino)-2-(pyrido[3,2-d]pyrimidin-4-yl)-1,5,6,7-tetrahydro-4H-pyrrolo[3,2-c]pyridin-4-one] | < 100 nM | > 1000 nM | 100 to 1000 nM | > 1000 nM |  |  |  |
| Cc1c(F)cccc1Nc1c(-c2ccnc(N)n2)[nH]c2c1C(=O)NCC2 [compound 282] | 100 to 1000 nM | < 100 nM | < 100 nM | 100 to 1000 nM |  |  |  |

Results, then the compound that gave them:

| IC50 [1] | IC50 [2] | IC50 [3] | IC50 [4] | IC50 [5] | IC50 [6] | IC50 [7] | SMILES |
| --- | --- | --- | --- | --- | --- | --- | --- |
| > 1000 nM | > 1000 nM | 100 to 1000 nM | > 1000 nM | > 1000 nM | > 1000 nM | > 1000 nM | COc1nccc(-c2[nH]c3c(c2Nc2cccc(Cl)c2OC)C(=O)NCC3)n1 [compound 286] |
| < 100 nM | < 100 nM | < 100 nM | < 100 nM | < 100 nM | < 100 nM | < 100 nM | COCCNc1ccc2nccc(-c3[nH]c4c(c3Nc3cccc(Cl)c3OC)C(=O)NCC4)c2n1 [Compound 680, 3-[(3-chloro-2-methoxyphenyl)amino]-2-[6-[(2-methoxyethyl)amino]-1,5-naphthyridin-4-yl]-1H,5H,6H,7H-pyrrolo[3,2-c]pyridin-4-one; formic acid] |
| < 100 nM |  | < 100 nM | < 100 nM | < 100 nM | < 100 nM | < 100 nM | COc1cc2nccc(-c3[nH]c4c(c3Nc3cccc(Cl)c3OC)C(=O)NCC4)c2nc1OC [compound 730, 3-[(3-chloro-2-methoxyphenyl)amino]-2-(6,7-dimethoxy-1,5-naphthyridin-4-yl)-1H,5H,6H,7H-pyrrolo[3,2-c]pyridin-4-one] |
| 100 to 1000 nM |  | < 100 nM | 100 to 1000 nM | < 100 nM | < 100 nM | < 100 nM | COc1c(Cl)cccc1Nc1c(-c2ccnc3ccc(OCC4CC(F)(F)C4)nc23)[nH]c2c1C(=O)NCC2 [compound 757, 3-[(3-chloro-2-methoxyphenyl)amino]-2-[6-[(3,3-difluorocyclobutyl)methoxy]-1,5-naphthyridin-4-yl]-1H,5H,6H,7H-pyrrolo[3,2-c]pyridin-4-one] |
| 100 to 1000 nM |  | < 100 nM | < 100 nM | < 100 nM | < 100 nM | < 100 nM | COc1c(Cl)cccc1Nc1c(-c2ccnc3cnc(OC4COC4)nc23)[nH]c2c1C(=O)NCC2 [compound 441] |
| < 100 nM |  | < 100 nM | < 100 nM | < 100 nM | < 100 nM | < 100 nM | COc1ccc2nccc(-c3[nH]c4c(c3Nc3cccc(F)c3OC)C(=O)NCC4)c2n1 [Compound 681, 3-[(3-fluoro-2-methoxyphenyl)amino]-2-(6-methoxy-1,5-naphthyridin-4-yl)-1H,5H,6H,7H-pyrrolo[3,2-c]pyridin-4-one] |
| > 1000 nM |  | < 100 nM | 100 to 1000 nM | 100 to 1000 nM | 100 to 1000 nM | 100 to 1000 nM | COc1c(Cl)cccc1Nc1c(-c2ccnc3cnc(OCCN(C)C)nc23)[nH]c2c1C(=O)NCC2 [compound 502, 3-[(3-chloro-2-methoxyphenyl)amino]-2-{2-[2-(dimethylamino)ethoxy]pyrido[3,2-d]pyrimidin-8-yl}-1H,5H,6H,7H-pyrrolo[3,2-c]pyridin-4-one] |
| < 100 nM | < 100 nM | < 100 nM | < 100 nM |  |  |  | CNc1ccc2nccc(-c3[nH]c4c(c3Nc3cccc(Cl)c3OC)C(=O)NCC4)c2n1 [Compound 152, 3-((3-chloro-2-methoxyphenyl)amino)-2-(6-(methylamino)-1,5-naphthyridin-4-yl)-1,5,6,7-tetrahydro-4H-pyrrolo[3,2-c]pyridin-4-one] |
